In patent US11278524B2, “Formulations and methods for the treatment of cancers” (Stemirna (Shanghai) Biotechnology Co. LTED., priority 2018, dated 2022):

Assays:
LNCaP AI-tumors = test: Therapy of mice bearing LNCaP androgen-independent (AI) tumors; format: in vivo
[1] = test system: LAPC4 androgen-independent tumors; test: Therapy of castrated mice bearing LAPC4 androgen-independent tumors; format: in vivo
Method: (§1) The xenograft models—LAPC9, LAPC4, LNCaP, and VCaP were serially passaged in castrated male NOD/SCID-γ mice (NSG; for LNCaP or NOD/SCID for the other models). The tumors were then harvested for western blot analysis for androgen receptor, androgen receptor-target molecules, cancer stem cell (CSC) and castration resistance (CR) markers. PC3 cells were used as a negative control for androgen receptors. 60 μg of whole cell lysate was loaded in each lane. GADPH was run as the loading controls (top and bottom panels).
To determine whether targeting cyt-AR in these tumors would be effective in reducing tumor burden, castrated mice bearing LAPC4 androgen-independent tumors were administered enzalutamide as indicated (FIG. 5B), and the tumor volume measured.
However, starting from ˜6.5-7 weeks, tumors resumed growth, indicative of resistance to enzalutamide. […] This opens the possibility of employing combinatorial approaches that target androgen receptor (Enzalutamide) together molecules such as Bcl2 (Venetoclax).

[2] = test system: LAPC9 androgen-independent tumors; test: Therapy of LAPC9 androgen-independent tumors; format: in vivo, mice
Method: as §1
To determine the sensitivity of LAPC9 androgen-independent tumors to enzalutamide, therapy experiments were performed as described for the LNCaP primary AI tumors (FIG. 3). […] To determine whether blocking alternate pathways regulated by any of these high expressing proteins, in the Enzalutamide resistant LAPC9 androgen-independent tumors, affects tumor burden, therapy experiments were performed with the Bromodomain and Extra-Terminal protein (a upstream regulator of Myc transcription) inhibitor, JQ1. The integrin α2β1 inhibitor, Compound 15 (142,143) was used as a positive control.

[3] = enzalutamide-resistant LAPC4 tumors, western blot
[4] = enzalutamide-resistant LAPC9 AI tumors

With `CNC(=O)c1ccc(N2C(=S)N(c3ccc(C#N)c(C(F)(F)F)c3)C(=O)C2(C)C)cc1F` [Enzalutamide, 4-(3-(4-Cyano-3-(trifluoromethyl)phenyl)-5,5-dimethyl-4-oxo-2-thioxoimidazolidin-1-yl)-2-fluoro-N-methylbenzamide] the “Bcl-2 expression in response to enzalutamide” value (LNCaP AI-tumors; among CSC and castration resistance markers, western blot) was “most prominent upregulation”, the “duration of growth suppression” value (LNCaP AI-tumors; enzalutamide i.p.) was 6.5 weeks and the “time at which no further response to enzalutamide was observed (emergence of enzalutamide-resistant tumors)” value (LNCaP AI-tumors; enzalutamide i.p.) was “about 7 weeks”. The “growth of androgen-independent LNCaP tumors” value (LNCaP AI-tumors; enzalutamide i.p., vehicle corn oil) was “suppressed growth”, the FKBP5 expression (LNCaP AI-tumors; enzalutamide-resistant secondary LNCaP CR tumors, western blot) was “decreased” and the PSA expression (LNCaP AI-tumors; enzalutamide-resistant secondary LNCaP CR tumors, western blot and IHC) was “decreased”. The E-cadherin expression [1, 3] was “slight increases”, the “levels of GR, N-cadherin, Bcl-2 and integrin α2” value [1, 3] was “continued to express high levels” and the androgen receptor localization ([1]; enzalutamide-resistant tumors, immuno-histochemistry) was “still largely in the cytoplasm”. For the same molecule, the “tumor growth compared to vehicle (corn oil) control” value ([1]; first 2-3 weeks) was “grew significantly slower”, the “time from which tumors resumed growth (resistance to enzalutamide)” value ([1]; mouse, in vivo) was 6.5-7 weeks and the “growth of enzalutamide-resistant cyto-AR+ LAPC4 tumors” value ([1]; up to 13 weeks, compared with enzalutamide-resistant LNCaP tumors) was “grew relatively slow”. For the same molecule, the FKBP5 levels ([2]; both vehicle and treatment groups, western blot) was “greatly diminished”, the “levels of integrin α2, c-Myc, N-cadherin, Bcl-2 and p-ERK1/2” value ([2]; enzalutamide-treated tumors, western blot) was “continued to express high levels” and the “response of tumors to enzalutamide (tumor volume)” value ([2]; primary AI tumors, vehicle corn oil) was “refractory”. The “expression of androgen receptors and PSA” value ([2]; western blot and IHC of endpoint tumors) was “no expression”.
With `CC#C[C@]1(O)CC[C@H]2[C@@H]3CCC4=CC(=O)CCC4=C3[C@@H](c3ccc(N(C)C)cc3)C[C@@]21C` [mifepristone] the “emergence (incidence) of LNCaP secondary castration resistant prostate cancer” value (LNCaP AI-tumors; combination with enzalutamide given simultaneously, LNCaP primary AI tumors, P<0.0001, χ2 test for venetoclax combination) was “without reducing incidence” and the tumor growth (LNCaP AI-tumors; combination with enzalutamide, LNCaP primary AI tumors) was “inhibited tumor growth”.
`Cc1sc2c(c1C)C(c1ccc(Cl)cc1)=N[C@@H](CC(=O)OC(C)(C)C)c1nnc(C)n1-2` [JQ1, (S)-tert-butyl 2-(4-(4-chlorophenyl)-2,3,9-trimethyl-6H-thieno[3,2-f][1,2,4]triazolo[4,3-a][1,4]diazepin-6-yl)acetate] was tested, and the tumor growth [2, 4] was “significantly inhibited tumor growth” and the tumor incidence [2, 4] was “not tumor incidence”.
